# According to patent publication US11717557B2, “Use of PRG4 as an anti-inflammatory agent” (Lubris LLC, priority 2015, dated 2023):
# What was measured:
# [1] = system: traumatic brain injury; assay: Traumatic brain injury model, controlled cortical impact, Western blotting of cerebral cortex; format: in vivo, rats
# Method: Approximately one hour after traumatic brain injury to rats, using an established brain injury model involving a controlled cortical impact, rhPRG4 was administered intravenously to test rats at an approximate dose of 2.5 mg/Kg. Normal saline (0.9% NaCl) was administered intravenously to control rats. One day later, brains were harvested and the samples of the cerebral cortex surrounding the post-traumatic lesion were analyzed using Western blotting.
# [2] = molecular target: T1, CD44 (Homo sapiens, UniProt P16070); assay: Concentration-dependent binding to CD44, direct ELISA
# T1 construct: purchased R & D systems
# Method: High-binding microtiter plates (Corning, Sigma Aldrich, USA) were coated with rhPRG4 (Mr≅240 KDa), high molecular weight HA (HMW HA; Mr≈1,500 KDa) (R & D System, USA), medium molecular weight HA (MMW HA; Mr≈300 KDa) (R & D System) and vitronectin (Mr≅75 KDa) (Sigma Aldrich) at 400 μg/mL in PBS buffer (100 μL per well) overnight at 4° C. rhPRG4 is a full-length product produced by CHO-M cells (Lubris, Framingham, Mass., USA). Following washing with PBS+0.1% Tween 20, wells were blocked with 2% bovine serum albumin (BSA; 300 μL per well) for at least 2 hours at room temperature. CD44-IgG1Fc (R & D systems) or IgG1Fc (R & D systems), each at 1 μg/mL (100 μl per well), were added to the plate and incubated for 60 min at room temperature. Following washing with PBS+0.1% tween 20, anti-IgG1Fc-HRP (Sigma Aldrich) was added at 1:10,000 dilution (100 μL per well) and incubated for 60 min at room temp. Following washing with PBS+0.1% tween 20, the assay was developed using 1-step Turbo TMB ELISA reagent (ThermoScientific, USA) and absorbance was measured at 450 nm. The data represents an average of 4 independent assays, each with triplicate wells per group.
# The concentration-dependent binding of rhPRG4, HMW HA and MMW HA to CD44 was performed by coating microtiter plates with 400, 200, 100, 20, 4, 2 and 0.1 μg/mL of the macromolecules. The assay was performed as described above. The absorbance values in the IgG1Fc wells were subtracted from the absorbance values in the CD44 IgG1Fc wells and the corrected CD44 IgG1Fc absorbance values were normalized to those of the 400 μg/mL rhPRG4 group and data was expressed as percentage binding to CD44. The concentration-dependent binding of rhPRG4, HMW HA and MMW HA to recombinant CD44 is depicted in FIG. 1B. […] The data represents an average of 4 independent assays, each with triplicate wells per group.
# [3] = system: NFκB nuclear translocation in RA-FLS; assay: NFκB nuclear translocation after TNF-α stimulation of RA-FLS; format: cell-based; details: TNF-α 5 ng/mL; rhPRG4 200 μg/mL or MG 132 3 μM; 24 hours; p<0.001
# Method: RA-FLS (400,000 cells/well) were cultured and stimulated with TNF-α (5 ng/mL) and treated with rhPRG4 (200 μg/mL) or a commercially available NFκB translocation inhibitor MG 132 (3 μM; Tocris Bioscience) for 24 hours in serum free media. Cells were harvested and nuclear extraction was performed using a commercially available kit (Thermo scientific). Total protein was measured using a micro bicinchonic acid (BCA) kit (Thermo scientific) and 3 μg of nuclear extract of each experimental group were used. The p50 subunit of NFκB was detected in the nuclear extract using a commercially available NFκB DNA binding assay kit (Abcam). Data is presented as the number of fold change in NFκB nuclear levels compared to untreated control. To evaluate whether inhibition of NFκB translocation by rhPRG4 is CD44 dependent, the above experiment was repeated in the presence or absence of IM7 CD44 antibody (1:1,000 dilution). Data represents the average of 3 independent experiments with at least triplicate wells per treatment.
# [4] = system: Prg4−/− synoviocytes; assay: Cytokine-induced Prg4−/− synoviocyte proliferation; format: cell-based, mice; details: p<0.001
# Method: rhPRG4 binding to CD44 and competition with high molecular weight hyaluronic acid (HMW HA) was evaluated using a direct enzyme linked immunosorbent assay (ELISA) and surface plasmon resonance. Sialidase-A and O-glycosidase digestion of rhPRG4 was performed and CD44 binding was evaluated using ELISA. Rheumatoid arthritis fibroblast-like synoviocytes (RA-FLS) were stimulated with interleukin-1 beta (IL-1β) or tumor necrosis factor alpha (TNF-α) for 48 hours in the presence or absence of rhPRG4 or HMW HA at 20, 40 and 80 μg/mL and cell proliferation was measured. CD44 contribution was assessed by co-incubation with an anti-CD44 antibody (IM7). The anti-proliferative effect of rhPRG4 was investigated following treatment of Prg4−/− synoviocytes with IL-1β or TNF-α in the presence or absence of IM7.
# Synovial tissue was harvested from Prg4−/− and Prg4+/+ male mice (8-10 weeks old; 5-8 animals per genotype) and digested with pronase enzyme (2 mg/mL; Sigma Aldrich) in sterile HBSS buffer for 30 min at 37° C. with shaking. This was followed by digestion with type I collagenase (1 mg/mL; Sigma Aldrich) for 4 hours at 37° C. with shaking. The enzymatic reaction was stopped using DMEM+10% FBS. Cells were grown in DMEM+10% FBS and Prg4−/− synoviocytes were used between 2nd and 4th passages while Prg4+/+ synoviocytes were used in their second passage.
# [5] = Serum cytokine levels after DMM surgery and intraarticular lubricin; format: in vivo, rat; details: single intraarticular dose 200 μg/kg seven days after DMM surgery; samples 3 weeks after dose; versus saline
# Method: In order to determine if lubricin could modulate pro-inflammatory cytokine levels in vivo, a rat model was used. Nine rats were subject to surgery to destabilize the medial meniscus (DMM surgery). Seven days after surgery, each rat received a single intraarticular dose of lubricin of 200 μg/kg. Control rats received an injection of an equal volume of saline. Cytokine levels in serum samples taken from the […] were compared with […] who received surgery but no dose of lubricin post-surgery. Samples were drawn 3 weeks after the dose of lubricin was administered and analyzed using the Luminex Multiplex platform. The results are shown in FIG. 13 where the measured levels of EPO, IL-13, IL-10, IL-18, IL-1α, IL-2, MCSF, IL-1β, IL-4, IFN-γ, MIP-3α, GMCSF, IL-7, TNF-α, VEGF, MCP-1, IL-5, G-CSF, RANTES, IL-6, GRO, IL-17α, and IL-12p70 are shown. The levels of IL-18, MCSF, MCP-1, RANTES, and GRO were all reduced in rats receiving lubricin as compared to rats that were injected with saline alone.
# [6] = approx. 2.5 mg/Kg intravenously, versus normal saline
# T1 sequence (P16070 with tags, fused parts or gaps limits assumed): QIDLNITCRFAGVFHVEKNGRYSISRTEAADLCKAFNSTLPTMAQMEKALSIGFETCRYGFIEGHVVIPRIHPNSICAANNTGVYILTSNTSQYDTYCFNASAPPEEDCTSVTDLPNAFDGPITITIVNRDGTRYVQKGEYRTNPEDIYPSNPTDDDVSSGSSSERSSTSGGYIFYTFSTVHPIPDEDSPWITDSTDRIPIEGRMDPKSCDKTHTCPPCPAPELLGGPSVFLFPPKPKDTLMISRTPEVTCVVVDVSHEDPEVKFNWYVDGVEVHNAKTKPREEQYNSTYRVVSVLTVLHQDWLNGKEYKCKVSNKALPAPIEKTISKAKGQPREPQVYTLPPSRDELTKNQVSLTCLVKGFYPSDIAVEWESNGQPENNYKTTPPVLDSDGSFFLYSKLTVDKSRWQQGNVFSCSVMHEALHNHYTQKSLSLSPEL
substance,measurement,setting,value
"rhPRG4: full-length recombinant human PRG4 (lubricin) glycoprotein produced by CHO-M cells (Lubris), Mr≅240 KDa",down regulation of Galectin 3,"[1]; approx. 2.5 mg/Kg intravenously about one hour after injury, brains harvested one day later, versus normal saline",74%
same,attenuation of post-traumatic synthesis of matrix metalloproteinase 9,[1]; [6],94%
same,inhibition of the conversion of pro-matrix metalloproteinase 2 to its enzymatically active form,[1]; [6],64%
same,reduction in the magnitude of post-traumatic influx of monocytes into the injured brain parenchyma,"[1]; approx. 2.5 mg/Kg intravenously, versus normal saline-treated rats",60%
same,reduction of the permeability of the blood-brain barrier,"[1]; assessed by level of albumin in traumatized brain tissue, approx. 2.5 mg/Kg intravenously",80%
same,affinity of concentration-dependent binding to CD44,[2],comparable affinity to HMW HA
same,"percentage CD44 binding, difference between rhPRG4, HMW HA and MMW HA-coated wells",[2]; coating 0.1 μg/mL,no significant differences
same,percentage recombinant CD44 binding compared to MMW HA coated wells,"[2]; coating 200 μg/mL, p<0.001",significantly higher
same,percentage recombinant CD44 binding compared to HMW HA or MMW HA-coated wells,"[2]; coating 400, 100, 20, 4 and 2 μg/mL, p<0.001",significantly higher
same,NFκB nuclear translocation compared to TNF-α-treated RA-FLS,[3],significantly reduced
same,IL-1β induced proliferation of Prg4−/− synoviocytes,[4],significantly inhibited
same,TNF-α induced proliferation of Prg4−/− synoviocytes,[4],significantly inhibited
same,"serum levels of IL-18, MCSF, MCP-1, RANTES and GRO",[5],reduced
